Measured values as given in patent US20220143152A1, “USE OF PEPTIDE DERIVED FROM H-REV107” (GJMEDI INC., priority 2019, published 2022).

Tests used:
[1] = test system: SW480 (colon cancer) cell-line; format: cell-based; conditions: 72 h
Procedure: (§1) Cancer cell-lines used in this example were SW480 (colon cancer), AsPC-1 (pancreatic cancer), NCI-H23 (lung cancer), NCI-H460 (lung cancer) and HCT116 (colon cancer) cell-lines. Specifically, for HCT116 and NCI-H460 cell-lines, 100 μl of a culture medium containing 2×10^3 cells per well; for SW480 and NCI-H23 cell-lines, 100 μl of a culture medium containing 5×10^3 cells per well; and, for AsPC-1 cell-line, 100 μl of a culture solution containing 1×10^4 cells per well, respectively, were seeded. The seeded cells were cultured for 24 hours for adhesion to the well, and the medium was changed. […] After completion of the culture, a cell counting kit-8 (CCK-8) solution (10 μl/well) was added, and the cells were further cultured for 4 hours in a CO2 incubator maintained at 37° C.

[2] = test system: AsPC-1 (pancreatic cancer) cell-line; format: cell-based; conditions: 72 h
Procedure: as §1

[3] = test system: NCI-H23 (lung cancer) cell-line; assay: Cancer inhibitory activity, CCK-8; format: cell-based; conditions: NCI-H23, 72 hours treatment
Procedure: as §1

[4] = test system: NCI-H460 (lung cancer) cell-line; assay: Cancer inhibitory activity, CCK-8; format: cell-based; conditions: NCI-H460, 72 hours treatment
Procedure: as §1

[5] = test system: HCT116 (colon cancer) cell-line; assay: Cancer inhibitory activity, CCK-8; format: cell-based; conditions: HCT-116, 72 hours treatment
Procedure: as §1

mutant KRAS G12V = mutant KRAS G12V (Homo sapiens, UniProt P01116, G12V); assay: GTP binding assay; format: biochemical; conditions: in the presence of H-REV107 protein, FIG. 3a
Procedure: The prepared mixture was incubated with a binding solution (50 mM Hepes (pH 7.5), 100 mM NaCl, 2 mM MgCl2, 1 mM EDTA and 1 mM DTT). The culture was passed through Ni-NTA resin and then bound at 4° C. […] GTP (2,500 cpm/pmol) and […] To terminate binding, a washing buffer (20 mM Tris-HCl (pH 7.4), 100 mM NaCl and 2 mM MgCl2) was added. After washing, the bound protein was eluted using 200 mM imidazole. In this example, bovine serum albumin was used as a negative control. Radioactive GTP bound to the protein was quantified by a liquid scintillation counter, and the results thereof are shown in FIG. 3.

Row | Molecule | GI50 [1] | GI50 [2] | GI50 [3] | GI50 [4] | GI50 [5] | radioactive GTP binding activity of the mutant KRAS G12V (mutant KRAS G12V)
1 | CC(C)C[C@H](N)C(=O)N[C@@H](Cc1ccc(O)cc1)C(=O)N[C@@H](CC(=O)O)C(=O)N[C@H](C(=O)N[C@@H](C)C(=O)NCC(=O)N[C@@H](CO)C(=O)N[C@@H](CC(=O)O)C(=O)N[C@@H](CCCCN)C(=O)N[C@@H](Cc1ccc(O)cc1)C(=O)O)C(C)C [CY101] | 358 µM | 417 µM | millimolar (mM) range | millimolar (mM) range | millimolar (mM) range | 
2 | H-REV107 protein: H-REV107 (HRAS-like suppressor 3), a growth inhibitory RAS target gene product (protein, UniProt P53816 1-162, looked up) Phospholipase A and …: MRAPIPEPKPGDLIEIFRPFYRHWAIYVGDGYVVHLAPPSEVAGAGAASVMSALTDKAIVKKELLYDVAGSDKYQVNNKHDDKYSPLPCSKIIQRAEELVGQEVLYKLTSENCEHFVNELRYGVARSDQVRDVIIAASVAGMGLAAMSLIGVMFSRNKRQKQ |  |  |  |  |  | somewhat reduced
